From patent publication US8729053B2, “Nuclear factor kappa B pathway inhibitor composition and use of same” (The United States of America, as represented by the …, priority 2008, dated 2014)
pIC50: −log10 of the molar value. Entries after “also recorded” stand apart in the source; their conditions may differ. Structures can show the parent of a compound that is named as a salt.

What was measured:
Assay type in all cases: cell-based
[1] = tested on: IκBα; assay: Phosphorylated IκBα levels in TPA treated breast cancer cell lines; settings: TPA treated MCF-7, T47D, MDA-MB-231
Protocol: In order to evaluate the potential therapeutic activity of the compound, tests for the biological activity of compound I were performed. The compound is non-toxic to MCF-7, T47D, and MDA-MB-231 breast cancer cells as estimated by XTT assay at 10 μM. To determine the effects of compound I on invasion by breast cancer cell lines, a matrigel invasion assay was used. The levels of phosphorylated IκBα were confirmed in TPA treated ER-positive (MCF-7 and T47D) and ER-negative (MDA-MB-231) breast cancer cell lines and compared the levels to those after pretreatment with compound I. Although induced levels of phosphorylated IκBα varied with the cell line, IκBα phosphorylation was eliminated by compound I treatment in all three breast cancer cell lines. Compound I also produced no effect on the estrogen receptor activity in the ER-positive breast cancer cells using ERE promoter luciferase reporter assay. Invasion capacity of breast cancer cells was increased by TPA stimulation compared to DMSO treated vehicle control. […] Following anchorage-independent colony induction in TPA-treated cells without or with compound I, colonies were lysed and measured with CyQuant GR Dye to detect DNA by fluorescence plate reader as a measure of colony count. Total transformed colony numbers were calculated from RFU and cell dose curve of JB6 cells. […]

[2] = tested on: RelB/p52; assay: Nuclear translocation of RelB/p52 and p100 processing, immunoblot; settings: HEK293
Protocol: To measure endogenous level of several proteins in response to TPA induction and compound I, HEK293 cells were lysed with RIPA buffer (10 mM Tris-HCl pH 7.5, 1 mM EDTA, 0.1% sodium dodecyl sulfate, 0.1% deoxycholate, and protease inhibitor). Whole cell extracts were subjected to immunoblot analysis with the following antibodies: p65 (F-6), p50 (E-10), p52 (C-5), RelB (C-19), IκBα (C-21), PCNA (F-2) were obtained from Santa Cruz Biotechnology (Santa Cruz, Calif.). IKKα, IKKβ, IKKγ, phospho-IκBα, phospho-IKKα/β, phospho-IKKγ, pohospho-Stat3 (Tyr 705 and Ser 727), phospho-p65 (Ser536 and Ser276), phospho-p44/42, phospho-JNKs were purchased from Cell Signaling (Danvers, Mass.), and α-tubulin from Sigma (St. Louis, Mo.). Nuclear and cytoplasmic extracts were prepared with HEK293 cells by NE-PER Nuclear and Cytoplasmic Extraction Reagents (Pierce Biotechnology, Rockford, Ill.) according to the manufacturer's protocol.
Nuclear translocation of endogenous p65/p50 and RelB/p52 heterodimers were monitored The activation of heterodimers p65/p50 and RelB/p52 occurs by distinct pathways dependent on IKKβ or IKKα catalytic activity. Repression of IKKβ would be expected to influence nuclear translocation of p65/p50 while repression of IKKα would influence processing of p100 to p52. […] However translocation of RelB is only dependent on IKKα for processing of its dimer partner p52 from p100. This processing depends on phosphorylation of p100 by IKKα. The processing of p100 to nuclear p52 was not inhibited by compound I but was proportional to expression levels of p100. Compound I inhibited expression of p100 by an unknown mechanism. […] Instead compound I inhibits IKKβ.

[3] = tested on: AP-1; assay: AP-1 luciferase reporter assay in HEK293 cells
Protocol: All expression plasmids were transiently transfected into HEK293 cells in a 96-well plate (0.1 μg/well) by using Effectene transfection reagent (Qiagen, Valencia, Calif.) according to the manufacturer's manual. HEK293 cells were maintained in Dulbecco's modified Eagle medium (Sigma, St. Louis, Mo.) supplemented with 10% fetal bovine serum (Atlanta Biologicals, Lawrenceville, Ga.) and incubated at 37° C. in a 5% CO2 incubator. After 24 hrs incubation, the medium was changed to DMEM with 0.2% FBS, and the transfectants were exposed to various concentrations of compound I and TPA (10 ng/ml). Cells were lysed with passive lysis buffer and the luciferase assay was performed using the Firefly-Luciferase reporter assay system (Promega, Madison, Wis.) and MLX Luminometer (Dynex Technology, Chantilly, Va.).
Three different luciferase reporter genes, AP-1 reporter containing four times TRE consensus originated from GCN4 and SRE reporter purchased from Stratagene (La Jolla, Calif.) respectively are as described previously (Suzukawa et al., Environ. Health Perspect., 2002, 110, 865-70). NFκB reporter is driven by five times NFκB responsive element inserted into Cis-reporter backbone (Stratagene, La Jolla, Calif.). Others include mouse COX-2 promoter region from −203 to +70 relative to the transcription site inserted into pTIS10L vector (Kim and Fischer, J. Biol. Chem., 1998, 273, 27686-94), human uPAR promoter region from −141 to +47 relative to transcription start site in pGL3 vector (Wang et al., Eur. J. Biochem., 2000, 267, 3248-54), and human VEGF promoter sequence from −2274 to +379 inserted into the pGL2 vector (Ding et al., J. Biol. Chem., 2006, 281, 9093-100). […]

## Cc1cc(N)ccc1N=Nc1ccc(S(=O)(=O)CCOS(=O)(=O)O)cc1 [compound I, 2-(4-((4-amino-2-methylphenyl)diazenyl)phenylsulfonyl)ethyl hydrogen sulfate]
[1]
  IκBα phosphorylation in breast cancer cell lines: eliminated
[2]
  Expression of p100: inhibited; also recorded: reduced
  Processing of p100 to nuclear p52: not inhibited; also recorded: did not inhibit
[2]; compound I pretreatment
  TPA-induced nuclear translocation of RelB: remarkably repressed
[3]; HEK293, 1 h pretreatment, TPA 10 ng/ml 18 hrs, read-out: IC50 for inhibition of TPA induced AP-1
  pIC50: 4.77
[3]; compound at 17.0 μM, HEK293, TPA 10 ng/ml 18 hrs
  AP-1 luciferase activity, % of the activity with TPA alone: 50%
